Measurements: patent publication US11890316B2, “Oral octreotide therapy and contraceptive methods” (Amryt Endo, Inc., priority 2020, dated 2024)

Legend:
clinical [1] = conditions: female, human, in vivo, po
clinical [2] = conditions: for Cmax, least squares geometric mean, Test / Cmax, least squares geometric mean, Reference: co-administered with HCTZ and metformin, in ng/mL; for effect of oral octreotide on the exposure to the probe drug (Cmax and AUC0-5): single 40 mg oral octreotide acetate vs placebo, first 5 h after dosing
From the text: This was a single-center, randomized, single-blind, placebo-controlled, crossover design study in healthy male and female subjects.
Eligible subjects were randomized in a 1:1 ratio to one of two treatment sequences of test conditions (i.e., Group 1 or Group 2); females were studied under 4 test conditions (A to D), whereas males were studied under 2 test conditions only (A and B), as shown in Table 1.
The study comprised a screening period, 4 treatment (dosing) periods for females and 2 treatment periods for males, and a follow-up period (approximately 7-10 days following the last dosing). There was a washout period of at least 14 days between dosing events.
The effect of […] on the absorption of estradiol was assessed by comparing Test Conditions C and D in up to 14 females. Blood sampling was conducted over the first 5 hours after administration.
Confidence intervals (Cis) (90%) were constructed for the geometric mean rations (GMRs) (probe drug+oral octreotide to probe drug alone) of the 2 parameters using the natural log-transformed data and the 2 one-sided t-tests procedure. The GMRs and CIs were exponentiated back to the original scale. The effect of concurrent administration of oral octreotide was assessed from the GMRs and 90% Cis. The discrete parameter Tmax was compared among treatments using non-parametric analyses.

[3] = both, human, in vivo, po, 100 mg
[4] = both, human, in vivo, po, 850 mg
[5] = R-warfarin with oral octreotide vs R-warfarin with placebo
[6] = S-warfarin with oral octreotide vs S-warfarin with placebo

SMILES: C#C[C@]1(O)CC[C@H]2[C@@H]3CCc4cc(O)ccc4[C@H]3CC[C@@]21C [Ethinyl Estradiol, ethinyl estradiol]
- Cmax Geometric Mean Ratio, Estimate (clinical [1]): 92.05%
- Tmax (clinical [1]): 2.75 h
- AUC(0-t) (clinical [1]; 0.06 mg): 0.37 ± 0.0802 ng·h/mL
- Tmax (clinical [1]; 0.06 mg): 1.79 h
- Cmax (clinical [1]; 0.06 mg, Cmax): 0.113 ± 0.0287 ng/mL

SMILES: NS(=O)(=O)c1cc2c(cc1Cl)NCNS2(=O)=O [Hydrochlorothiazide, hydrochlorothiazide]
- AUC(0-5) Geometric Mean Ratio, Estimate (clinical [2]; both, human, in vivo, po): 81.82%
- Cmax Geometric Mean Ratio, Estimate (clinical [2]; both, human, in vivo, po): 91.21%
- Tmax (clinical [2]; both, human, in vivo, po): 4 h
- AUC(0-t) (clinical [2]; [3]): 2030 ± 392 ng·h/mL
- Tmax (clinical [2]; [3]): 2.75 h
- Cmax (clinical [2]; both, human, in vivo, po, 100 mg, Cmax): 655 ± 128 ng/mL

SMILES: CN(C)C(=N)N=C(N)N [Metformin, metformin]
- AUC(0-t) (clinical [2]; [4]): 5500 ± 1280 ng·h/mL
- Cmax (clinical [2]; [4]): 1450 ± 398 ng/mL

SMILES: CC(=O)C[C@H](c1ccccc1)c1c(O)c2ccccc2oc1=O [R-Warfarin, R-warfarin]
- Cmax (clinical [2]; R-warfarin in plasma, single 7.5 mg oral racemic warfarin, with single 40 mg (2x20 mg) oral octreotide acetate, healthy volunteers, mean ± SD): 508 ± 97.0 ng/mL
- Cmax (clinical [2]; R-warfarin in plasma, single 7.5 mg oral racemic warfarin, without oral octreotide (placebo), healthy volunteers, mean ± SD): 498 ± 82.0 ng/mL
- Cmax, least squares geometric mean, Test (clinical [2]; R-warfarin with oral octreotide 40 mg, 7.5 mg racemic warfarin): 500.10
- AUC(0-5) Geometric Mean Ratio, Estimate (clinical [2]; [5]): 105.17%
- Cmax Geometric Mean Ratio, Estimate (clinical [2]; [5]): 101.84%
- Cmax, least squares geometric mean, Reference (clinical [2]; R-warfarin with placebo, 7.5 mg racemic warfarin): 491.04
- AUC(0-5) (clinical [2]; R-warfarin, 7.5 mg racemic warfarin, with 40 mg oral octreotide acetate, mean ± SD): 2012 ± 348 ng·h/mL
- Tmax (clinical [2]; R-warfarin, 7.5 mg racemic warfarin, with 40 mg oral octreotide acetate, median): 2.00 (18) h
- AUC(0-5) (clinical [2]; R-warfarin, 7.5 mg racemic warfarin, without oral octreotide (placebo), mean ± SD): 1907 ± 280 ng·h/mL
- Tmax (clinical [2]; R-warfarin, 7.5 mg racemic warfarin, without oral octreotide (placebo), median): 1.00 (18) h
- effect of oral octreotide on the exposure to the probe drug (Cmax and AUC0-5) (clinical [2]; healthy volunteers): no significant effect

SMILES: CC(=O)C[C@@H](c1ccccc1)c1c(O)c2ccccc2oc1=O [S-Warfarin, S-warfarin]
- Cmax (clinical [2]; S-warfarin in plasma, single 7.5 mg oral racemic warfarin, with single 40 mg (2x20 mg) oral octreotide acetate, healthy volunteers, mean ± SD): 492 ± 114.2 ng/mL
- Cmax (clinical [2]; S-warfarin in plasma, single 7.5 mg oral racemic warfarin, without oral octreotide (placebo), mean ± SD): 503 ± 91.2 ng/mL
- Cmax, least squares geometric mean, Test (clinical [2]; S-warfarin with oral octreotide 40 mg, 7.5 mg racemic warfarin): 480.09
- AUC(0-5) Geometric Mean Ratio, Estimate (clinical [2]; [6]): 102.38%
- Cmax Geometric Mean Ratio, Estimate (clinical [2]; [6]): 97.06%
- Cmax, least squares geometric mean, Reference (clinical [2]; S-warfarin with placebo, 7.5 mg racemic warfarin): 494.64
- AUC(0-5) (clinical [2]; S-warfarin, 7.5 mg racemic warfarin, with 40 mg oral octreotide acetate, mean ± SD): 1894 ± 330 ng·h/mL
- Tmax (clinical [2]; S-warfarin, 7.5 mg racemic warfarin, with 40 mg oral octreotide acetate, median): 1.50 (18) h
- AUC(0-5) (clinical [2]; S-warfarin, 7.5 mg racemic warfarin, without oral octreotide (placebo), mean ± SD): 1846 ± 286 ng·h/mL
- Tmax (clinical [2]; S-warfarin, 7.5 mg racemic warfarin, without oral octreotide (placebo), median): 1.00 (18) h
- effect of oral octreotide on the exposure to the probe drug (Cmax and AUC0-5) (clinical [2]; healthy volunteers): no significant effect
